This assay concerns the target T1, c-kit mutant D816V (Homo sapiens, UniProt P10721, D816V/DEL694-753).
T1 construct: residues 551-934, kinase insertion domain residues 694-753 deleted; 6x-histidine (N); made in house; host or cells: E. coli Arctic Express (DE3) RIL (Stratagene)
Nature of the assay: c-Kit mutant D816V biochemical assay, AlphaScreen. Conditions: c-kit D816V biochemical inhibitory activity; read-out: Biochemical activity (IC50 μM) Kit D816V. As to the method:
Compounds to be tested were dissolved in DMSO to a concentration of 20 mM. These were diluted 30 μl into 120 μl of DMSO (4 mM) and 1 μl was added to an assay plate. These were then serially diluted 1:3 (50 μl to 100 μl DMSO) for a total of 8 points. Plates were prepared such that each kinase reaction is 20 μl in 1× kinase buffer (25 mM HEPES, pH 7.2, 8 mM MgCl2, 2 mM MnCl2, 50 mM NaCl, 0.01% Brij, 1 mM DTT, 0.01% BSA), 5% DMSO and 10 μM ATP. […] After incubation of the kinase reaction for 30 minutes at room temperature, 5 μl of donor beads (Streptavidin coated beads (Perkin Elmer Life Science) final concentration 7.5 μg/ml) in stop buffer (25 mM Hepes pH 7.5, 100 mM EDTA, 0.01% BSA) was added, the sample was mixed and incubated for 20 minutes at room temperature before adding 5 μl of acceptor beads (PY20 coated beads (Perkin Elmer Life Science) final concentration 7.5 μg/ml) in stop buffer. The samples were incubated for 60 minutes at room temperature and the signal per well was read on EnVision reader. […] The signal vs. compound concentration was used to determine the IC50.
Cells were grown in Terrific Broth (TB) media to an OD600 of 0.6 at 37° C. at which temperature was reduced to 10° C., protein was induced with 1.0 mM IPTG for 18 hours and harvested by centrifugation at 8000×g for 20 minutes. Cells were re-suspended in 0.1M KPO4 pH 8.0, 250 mM NaCl, 10% Glycerol, 0.75% NP-40, 25 mM Imidazole, 5 mM BME with 0.2 mg/ml Lysosyme, 2.0 mM PMSF, 25 μg/ml DNAse I, incubated in ice for 30 minutes and lysed with a cell disruptor (MicroFluidics). The lysate was clarified by centrifugation at 20,000×g for 2 hours. The protein was captured with Talon resin (Clontech). Contaminating proteins were washed off with 25 mM Tris-HCl pH 8.3, 250 mM NaCl, 15% Glycerol, 1% Triton X-100, and protein eluted using 100 mM EDTA. The protein was further purified using Gel Filtration column 26/600 Superdex 200 (GE) in 50 mM Tris-HCl, pH 8.0, 250 mM NaCl, 15% Glycerol, 5 mM BME. The protein was aliquoted and flash-frozen in liquid Nitrogen.
In general terms: Alpha assays give light when donor and acceptor beads are brought close together.

T1 sequence (P10721 with tags, fused parts or gaps DEL694-753/D816V): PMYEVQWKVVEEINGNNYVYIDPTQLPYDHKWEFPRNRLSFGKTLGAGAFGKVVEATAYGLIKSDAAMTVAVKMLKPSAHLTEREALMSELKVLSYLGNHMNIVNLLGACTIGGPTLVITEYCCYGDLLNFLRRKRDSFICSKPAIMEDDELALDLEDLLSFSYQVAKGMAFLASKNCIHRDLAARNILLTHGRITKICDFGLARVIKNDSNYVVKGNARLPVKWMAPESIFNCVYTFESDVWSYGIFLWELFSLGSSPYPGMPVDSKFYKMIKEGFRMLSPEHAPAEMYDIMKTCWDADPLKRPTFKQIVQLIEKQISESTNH

A word on the IC50: it is the concentration at which inhibition is half-maximal. Turning to `CC(NC(=O)N1CCN(c2ncnc3[nH]c(-c4ccc(Cl)cc4)cc23)C[C@H]1C)c1ccc(Cl)cc1` (stereo in doubt) [P-0021, (2R)-N-[(1S)-1-(4-chlorophenyl)ethyl]-4-[6-(4-chlorophenyl)-7H-pyrrolo[2,3-d]pyrimidin-4-yl]-2-methyl-piperazine-1-carboxamide], the concentration for half-maximal inhibition (IC50) is 1 to 10 µM. Then `CC(C)(C)Oc1ccc(NC(=O)N2CCN(c3ncnc4[nH]c(-c5ccc(Cl)cc5)cc34)CC2)cc1` [P-0017, N-(4-tert-butoxyphenyl)-4-[6-(4-chlorophenyl)-7H-pyrrolo[2,3-d]pyrimidin-4-yl]piperazine-1-carboxamide], with 10 to 200 µM. As for `C[C@@H]1CN(c2ncnc3[nH]c(-c4ccc(Cl)cc4)cc23)CCN1C(=O)N[C@H](C)c1ccc(F)cc1` [P-0022, (2R)-4-[6-(4-chlorophenyl)-7H-pyrrolo[2,3-d]pyrimidin-4-yl]-N-[(1R)-1-(4-fluorophenyl)ethyl]-2-methyl-piperazine-1-carboxamide], the figure is 0.0001 to 1 µM; as for `COc1cccc([C@@H](C)NC(=O)N2CCN(c3ncnc4[nH]c(-c5ccc(Cl)cc5)cc34)C[C@H]2C)c1` [P-0025, (2R)-4-[6-(4-chlorophenyl)-7H-pyrrolo[2,3-d]pyrimidin-4-yl]-N-[(1R)-1-(3-methoxyphenyl)ethyl]-2-methyl-piperazine-1-carboxamide], 10 to 200 µM.

For `O=S(=O)(NN1CCN(c2ncnc3[nH]c(-c4ccc(F)cc4)cc23)CC1)c1ccc(OC(F)(F)F)cc1` [P-0026, N-[4-[6-(4-fluorophenyl)-7H-pyrrolo[2,3-d]pyrimidin-4-yl]piperazin-1-yl]-4-(trifluoromethoxy)benzenesulfonamide], the IC50 lay in the range of 10 to 200 µM. Then `C[C@H](NC(=O)N1CCN(c2ncnc3[nH]c(-c4ccc(F)cc4)cc23)CC1)c1cccc(C(F)(F)F)c1` [P-0033, 4-[6-(4-fluorophenyl)-7H-pyrrolo[2,3-d]pyrimidin-4-yl]-N-[(1S)-1-[3-(trifluoromethyl)phenyl]ethyl]piperazine-1-carboxamide], with 0.0001 to 1 µM.

Consider `C[C@@H]1CN(c2ncnc3[nH]c(-c4ccc(F)cc4)cc23)CCN1C(=O)N[C@H](C)c1ccc(F)cc1` [P-0034, (2R)-N-[(1R)-1-(4-fluorophenyl)ethyl]-4-[6-(4-fluorophenyl)-7H-pyrrolo[2,3-d]pyrimidin-4-yl]-2-methyl-piperazine-1-carboxamide], for which the IC50 was in the range of 1 to 10 µM. Then `C[C@H](NC(=O)N1CCN(c2ncnc3[nH]c(-c4ccc(F)cc4)cc23)CC1)c1cccc(F)c1` [P-0036, N-[(1S)-1-(3-fluorophenyl)ethyl]-4-[6-(4-fluorophenyl)-7H-pyrrolo[2,3-d]pyrimidin-4-yl]piperazine-1-carboxamide], with 0.0001 to 1 µM.

As for `O=C(NCc1cccc(OC(F)F)c1)N1CCN(c2ncnc3[nH]c(-c4ccc(Cl)cc4)cc23)CC1` [P-0037, 4-[6-(4-chlorophenyl)-7H-pyrrolo[2,3-d]pyrimidin-4-yl]-N-[[3-(difluoromethoxy)phenyl]methyl]piperazine-1-carboxamide], the IC50 was in the range of 1 to 10 µM. As for `COc1cccc([C@H](C)NC(=O)N2CCN(c3ncnc4[nH]c(-c5ccc(Cl)cc5)cc34)CC2)c1` [P-0038, 4-[6-(4-chlorophenyl)-7H-pyrrolo[2,3-d]pyrimidin-4-yl]-N-[(1S)-1-(3-methoxyphenyl)ethyl]piperazine-1-carboxamide], the IC50 fell in the range of 0.0001 to 1 µM. For `Cc1ccc(NC(=O)N2CCN(c3ncnc4[nH]c(-c5ccncc5)cc34)C[C@@H]2C)cn1` [P-0039, (2S)-2-methyl-N-(6-methyl-3-pyridyl)-4-[6-(4-pyridyl)-7H-pyrrolo[2,3-d]pyrimidin-4-yl]piperazine-1-carboxamide], the IC50 is 1 to 10 µM. Consider `C[C@H]1CN(c2ncnc3[nH]c(-c4ccncc4)cc23)CCN1C(=O)NCc1cccc(Cl)c1` [P-0040, (2S)-N-[(3-chlorophenyl)methyl]-2-methyl-4-[6-(4-pyridyl)-7H-pyrrolo[2,3-d]pyrimidin-4-yl]piperazine-1-carboxamide], for which the IC50 was in the range of 0.0001 to 1 µM.

For `C[C@H]1CN(c2ncnc3[nH]c(-c4ccncc4)cc23)CCN1C(=O)NCc1ccc(F)cc1` [P-0041, (2S)-N-[(4-fluorophenyl)methyl]-2-methyl-4-[6-(4-pyridyl)-7H-pyrrolo[2,3-d]pyrimidin-4-yl]piperazine-1-carboxamide], the IC50 was 0.0001 to 1 µM.

With `CC[C@H](NC(=O)N1CCN(c2ncnc3[nH]c(-c4ccncc4)cc23)C[C@@H]1C)c1ccccc1` [P-0048, (2S)-2-methyl-N-[(1S)-1-phenylpropyl]-4-[6-(4-pyridyl)-7H-pyrrolo[2,3-d]pyrimidin-4-yl]piperazine-1-carboxamide], the IC50 was 0.0001 to 1 µM. Take `C[C@H](NC(=O)N1CCN(c2ncnc3[nH]c(-c4ccncc4)cc23)C[C@@H]1C)c1ccc(F)cc1` [P-0049, (2S)-N-[(1S)-1-(4-fluorophenyl)ethyl]-2-methyl-4-[6-(4-pyridyl)-7H-pyrrolo[2,3-d]pyrimidin-4-yl]piperazine-1-carboxamide]: the IC50 was 0.0001 to 1 µM. `C[C@H](NC(=O)N1CCN(c2ncnc3[nH]c(-c4ccncc4)cc23)C[C@@H]1C)c1ccc(Cl)cc1` [P-0050, (2S)-N-[(1S)-1-(4-chlorophenyl)ethyl]-2-methyl-4-[6-(4-pyridyl)-7H-pyrrolo[2,3-d]pyrimidin-4-yl]piperazine-1-carboxamide]: the IC50 fell in the range of 0.0001 to 1 µM. On to `COc1cccc([C@H](C)NC(=O)N2CCN(c3ncnc4[nH]c(-c5ccncc5)cc34)C[C@@H]2C)c1` [P-0051, (2S)-N-[(1S)-1-(3-methoxyphenyl)ethyl]-2-methyl-4-[6-(4-pyridyl)-7H-pyrrolo[2,3-d]pyrimidin-4-yl]piperazine-1-carboxamide], for which the IC50 fell in the range of 0.0001 to 1 µM.

For `CC[C@H](NC(=O)N1CCN(c2ncnc3[nH]c(-c4ccncc4)cc23)C[C@H]1C)c1ccccc1` [P-0054, (2R)-2-methyl-N-[(1S)-1-phenylpropyl]-4-[6-(4-pyridyl)-7H-pyrrolo[2,3-d]pyrimidin-4-yl]piperazine-1-carboxamide], the IC50 fell in the range of 0.0001 to 1 µM. `Cc1ccc(NC(=O)N2CCN(c3ncnc4[nH]c(-c5ccncc5)cc34)C[C@H]2C)cn1` [P-0055, (2R)-2-methyl-N-(6-methyl-3-pyridyl)-4-[6-(4-pyridyl)-7H-pyrrolo[2,3-d]pyrimidin-4-yl]piperazine-1-carboxamide]: the IC50 fell in the range of 0.0001 to 1 µM. For `COc1cccc([C@H](C)NC(=O)N2CCN(c3ncnc4[nH]c(-c5ccc(C#N)cc5)cc34)CC2)c1` [P-0069, 4-[6-(4-cyanophenyl)-7H-pyrrolo[2,3-d]pyrimidin-4-yl]-N-[(1S)-1-(3-methoxyphenyl)ethyl]piperazine-1-carboxamide], the IC50 was in the range of 0.0001 to 1 µM. On to `O=C(NCc1cccc(OC(F)F)c1)N1CCN(c2ncnc3[nH]c(-c4ccc(F)cc4)cc23)CC1` [P-0073, N-[[3-(difluoromethoxy)phenyl]methyl]-4-[6-(4-fluorophenyl)-7H-pyrrolo[2,3-d]pyrimidin-4-yl]piperazine-1-carboxamide], for which the IC50 lay within 1 to 10 µM. As for `O=C(NCc1cccc(OC(F)(F)F)c1)N1CCN(c2ncnc3[nH]c(-c4ccc(F)cc4)cc23)CC1` [P-0076, 4-[6-(4-fluorophenyl)-7H-pyrrolo[2,3-d]pyrimidin-4-yl]-N-[[3-(trifluoromethoxy)phenyl]methyl]piperazine-1-carboxamide], the IC50 was 1 to 10 µM.

The record behind these values is patent US10227357B2, “Compounds and methods for kinase modulation, and indications therefor” (Plexxikon Inc., priority 2012, dated 2019).
